From PMC11243196, “Identification of Benzothiazoles Bearing 1,3,4-Thiadiazole as Antiproliferative Hybrids Targeting VEGFR-2 and BRAF Kinase: Design, Synthesis, BIO Evaluation and In Silico Study” (Molecules, 2024)
Where two headings read alike, the source gives them in different places.

Legend:
BRAF^V600E = system: BRAF^V600E; parameters: method as in PMID 23906342; settings: read-out: IC50 against BRAF^V600E; cited from earlier work
HCT-116 = test: MTT antiproliferative assay, HCT-116; assay type: cell-based; settings: Homo sapiens, HCT-116, read-out: IC50 (µM) HCT-116
HePG-2 = test: MTT antiproliferative assay, HePG-2; assay type: cell-based; settings: Homo sapiens, HepG2; hepatocellular carcinoma HePG-2, MTT
MCF-7 = test: MTT antiproliferative assay, MCF-7; assay type: cell-based; settings: Homo sapiens, MCF7; breast cancer MCF-7, MTT
WI-38 cells = test: Cytotoxicity against normal human cells, WI-38; assay type: cell-based; settings: normal lung cell line WI-38
BRAF (V600E) = BRAF (V600E) (Homo sapiens, UniProt P15056, V600E); test: In vitro BRAF (V600E) kinase inhibitory assay; assay type: biochemical
VEGFR-2 = VEGFR-2 (Homo sapiens, UniProt P35968); test: In vitro VEGFR-2 kinase inhibitory assay; assay type: biochemical
Protocol: […]. The in vitro assays were carried out as previously described.

[1] = system: HePG-2, HCT-116 and MCF-7 cell lines; test: MTT antiproliferative assay, range over the three cancer cell lines; assay type: cell-based; settings: Homo sapiens
Protocol: Sorafenib was used as a positive control medication.
As previously documented, the in vitro anticancer efficacy of the produced hybrids was evaluated using an MTT test. The used cell lines was bought from Vacsera (Giza, Egypt).

PDGFR-β = system: PDGFR-β; parameters: method as in PMID 32045054; settings: read-out: IC50 against PDGFR-β; cited from earlier work
VEGFR-2 in MCF-7 cells = system: VEGFR-2 in MCF-7 cells; parameters: method as in PMID 32045054; settings: cited from earlier work
FGFR-1 = system: FGFR-1; parameters: method as in PMID 32045054; settings: read-out: IC50 against FGFR-1; cited from earlier work
CRAF = settings: read-out: IC50 against CRAF; cited from earlier work
BRAFV600 = settings: read-out: IC50 against BRAFV600; cited from earlier work
MCF-7 cells [2] = test: Annexin V-FITC/PI apoptosis detection; assay type: cell-based, human; settings: 24 h, untreated control 0.89%
Source text: The level of apoptosis was quantified utilizing the MCF-7 cell lines and Annexin V-FITC/PI apoptosis detection kit, as documented in the literature.

MCF-7 cells [3] = test: Cell cycle analysis by DNA flow cytometry (PI); assay type: cell-based, human
Protocol: To ascertain the precise cell cycle phase at which our highly promising chemical 4f causes the MCF7 breast cancer cells to cease their progression, we conducted cell cycle analysis and apoptotic experiments utilizing DNA flow cytometry.
As previously documented, the cell cycle study was conducted on the MCF-7 cell lines, stained with PI and examined using a Calibur flow cytometer.

[4] = one range for the group 4a, 4f, 4l, 4r over three cancer cell lines, read-out: IC50 values ranging, against three cancer cell lines
[5] = read-out: IC50 range of the compound over the cancer cell lines
[6] = range over HePG-2, HCT-116, MCF-7, read-out: IC50 range of the compound over the cancer cell lines

Sequence of VEGFR-2 (P35968 20-1356): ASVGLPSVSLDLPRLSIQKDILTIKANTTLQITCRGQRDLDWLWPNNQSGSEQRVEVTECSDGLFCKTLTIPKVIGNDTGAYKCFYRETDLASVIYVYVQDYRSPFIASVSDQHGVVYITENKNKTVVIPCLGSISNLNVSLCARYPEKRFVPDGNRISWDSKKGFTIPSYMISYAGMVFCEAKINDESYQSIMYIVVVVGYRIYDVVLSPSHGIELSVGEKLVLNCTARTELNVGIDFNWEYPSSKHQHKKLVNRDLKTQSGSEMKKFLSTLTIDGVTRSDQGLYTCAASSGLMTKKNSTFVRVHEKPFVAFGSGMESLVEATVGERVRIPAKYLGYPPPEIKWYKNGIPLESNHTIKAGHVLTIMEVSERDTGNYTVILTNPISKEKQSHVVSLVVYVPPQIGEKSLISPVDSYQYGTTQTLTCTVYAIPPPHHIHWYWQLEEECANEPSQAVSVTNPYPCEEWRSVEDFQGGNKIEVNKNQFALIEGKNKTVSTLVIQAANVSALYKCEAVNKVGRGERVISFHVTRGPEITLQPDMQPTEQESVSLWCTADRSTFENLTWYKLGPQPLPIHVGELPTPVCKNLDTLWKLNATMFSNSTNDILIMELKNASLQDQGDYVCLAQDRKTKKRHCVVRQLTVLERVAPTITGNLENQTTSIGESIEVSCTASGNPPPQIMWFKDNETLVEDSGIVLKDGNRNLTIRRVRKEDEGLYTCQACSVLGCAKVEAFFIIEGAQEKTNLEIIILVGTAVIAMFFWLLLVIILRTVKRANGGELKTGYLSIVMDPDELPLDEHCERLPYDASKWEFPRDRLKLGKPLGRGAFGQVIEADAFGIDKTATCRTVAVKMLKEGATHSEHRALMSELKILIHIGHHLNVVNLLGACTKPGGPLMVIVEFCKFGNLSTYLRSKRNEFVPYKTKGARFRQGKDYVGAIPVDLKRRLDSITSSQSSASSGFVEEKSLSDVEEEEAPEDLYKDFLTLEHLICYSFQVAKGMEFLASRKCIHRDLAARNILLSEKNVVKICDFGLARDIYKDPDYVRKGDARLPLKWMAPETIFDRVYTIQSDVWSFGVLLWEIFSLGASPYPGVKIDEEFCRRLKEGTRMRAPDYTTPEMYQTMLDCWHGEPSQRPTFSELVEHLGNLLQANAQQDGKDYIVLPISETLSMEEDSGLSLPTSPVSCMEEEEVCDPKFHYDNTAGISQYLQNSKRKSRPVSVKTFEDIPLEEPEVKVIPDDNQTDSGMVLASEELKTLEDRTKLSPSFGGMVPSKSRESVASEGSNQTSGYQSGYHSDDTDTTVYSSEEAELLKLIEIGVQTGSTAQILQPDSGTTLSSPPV
Sequence of BRAF (V600E) (P15056 whole entry V600E): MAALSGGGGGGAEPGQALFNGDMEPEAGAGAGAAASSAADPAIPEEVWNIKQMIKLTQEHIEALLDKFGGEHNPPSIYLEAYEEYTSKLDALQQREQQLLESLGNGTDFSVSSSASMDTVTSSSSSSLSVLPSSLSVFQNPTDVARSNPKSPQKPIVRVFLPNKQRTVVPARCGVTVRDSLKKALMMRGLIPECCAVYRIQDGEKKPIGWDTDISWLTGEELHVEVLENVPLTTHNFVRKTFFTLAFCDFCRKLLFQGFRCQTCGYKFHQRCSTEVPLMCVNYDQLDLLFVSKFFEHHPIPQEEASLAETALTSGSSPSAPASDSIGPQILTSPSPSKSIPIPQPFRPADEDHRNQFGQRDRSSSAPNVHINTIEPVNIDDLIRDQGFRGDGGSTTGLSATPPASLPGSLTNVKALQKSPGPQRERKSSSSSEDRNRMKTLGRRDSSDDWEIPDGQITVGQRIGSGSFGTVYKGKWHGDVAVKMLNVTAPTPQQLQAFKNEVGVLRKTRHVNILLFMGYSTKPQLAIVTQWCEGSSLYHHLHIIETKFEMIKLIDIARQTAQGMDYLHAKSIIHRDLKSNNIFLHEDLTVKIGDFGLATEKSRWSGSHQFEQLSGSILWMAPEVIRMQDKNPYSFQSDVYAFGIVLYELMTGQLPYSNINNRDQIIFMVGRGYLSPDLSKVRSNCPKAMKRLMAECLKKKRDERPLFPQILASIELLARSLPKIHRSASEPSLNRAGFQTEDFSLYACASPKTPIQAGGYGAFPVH

## N#Cc1c(Oc2ccc(F)c(NC(=O)Cc3cccc(C(F)(F)F)c3)c2)ccc2nc(NC(=O)C3CC3)sc12 [TAK-632]
BRAF^V600E
  IC50: 0.0024 µM

## Cc1ccc2nc(NC(=O)CSc3nnc(NC(=O)Nc4ccc(F)cc4)s3)sc2c1 [4k, 2-((5-(3-(4-Fluorophenyl)ureido)-1,3,4-thiadiazol-2-yl)thio)-N-(6-methylbenzo[d]thiazol-2-yl)acetamide]
HCT-116
  IC50: 92 ± 4.6 µM
HePG-2
  IC50: 64.2 ± 3.7 µM
MCF-7
  IC50: 69.5 ± 3.5 µM
WI-38 cells
  IC50: 58.5 ± 3.2 µM

## COc1ccc(NC(=O)Nc2nnc(SCC(=O)Nc3nc4ccc(Cl)cc4s3)s2)cc1 [4o, N-(6-Chlorobenzo[d]thiazol-2-yl)-2-((5-(3-(4-methoxyphenyl)ureido)-1,3,4-thiadiazol-2-yl)thio)acetamide]
HCT-116
  IC50: 51.6 ± 2.8 µM
HePG-2
  IC50: 35 ± 2.4 µM
MCF-7
  IC50: 43.5 ± 2.4 µM
WI-38 cells
  IC50: 26.4 ± 1.8 µM

## O=C(CSc1nnc(NC(=O)Nc2ccccc2)s1)Nc1nc2ccccc2s1 [4a, N-(Benzo[d]thiazol-2-yl)-2-((5-(3-phenylureido)-1,3,4-thiadiazol-2-yl)thio)acetamide]
HCT-116
  IC50: 9.94 ± 0.8 µM
BRAF (V600E)
  IC50: 0.677 µM
HePG-2
  IC50: 12.9 ± 0.9 µM
VEGFR-2
  IC50: 0.342 µM
MCF-7
  IC50: 5.91 ± 0.3 µM
WI-38 cells
  IC50: 66.2 ± 3.5 µM
[1]; [4]
  IC50: 3.58 to 15.4 µM
[1]; [5]
  IC50: 5.91 to 12.9 µM
other
  melting point: 273 to 275 °C

## Cc1ccc2nc(NC(=O)CSc3nnc(NC(=O)Nc4ccc(C(F)(F)F)c(Cl)c4)s3)sc2c1 [4l, 2-((5-(3-(3-Chloro-4-(trifluoromethyl)phenyl)ureido)-1,3,4-thiadiazol-2-yl)thio)-N-(6-methylbenzo[d]thiazol-2-yl)acetamide]
HCT-116
  IC50: 13.5 ± 1 µM
HePG-2
  IC50: 15.4 ± 1.2 µM
MCF-7
  IC50: 9.46 ± 0.6 µM
WI-38 cells
  IC50: 47.5 ± 2.7 µM
[1]; [4]
  IC50: 3.58 to 15.4 µM
[1]; [6]
  IC50: 9.46 to 15.4 µM

## Cc1ccc2nc(NC(=O)CSc3nnc(NC(=O)Nc4ccc(Cl)cc4)s3)sc2c1 [4j, 2-((5-(3-(4-Chlorophenyl)ureido)-1,3,4-thiadiazol-2-yl)thio)-N-(6-methylbenzo[d]thiazol-2-yl)acetamide]
HCT-116
  IC50: > 100 µM
HePG-2
  IC50: 78.1 ± 3.9 µM
MCF-7
  IC50: 84.2 ± 4.2 µM
WI-38 cells
  IC50: > 100 µM

## COc1cc(/C=N/NC(=O)COc2ccc(-c3nc4ccccc4s3)cc2OC)ccc1O [III]
PDGFR-β
  IC50: 0.08 µM
VEGFR-2 in MCF-7 cells
  inhibitory effect on VEGFR-2 in MCF-7 cells: 83%
FGFR-1
  IC50: 0.19 µM

## Cc1ccc(NC(=O)Nc2nnc(SCC(=O)Nc3nc4ccc(Cl)cc4s3)s2)cc1 [4n, N-(6-Chlorobenzo[d]thiazol-2-yl)-2-((5-(3-(p-tolyl)ureido)-1,3,4-thiadiazol-2-yl)thio)acetamide]
HCT-116
  IC50: 44.8 ± 2.5 µM
HePG-2
  IC50: 32.8 ± 2.4 µM
MCF-7
  IC50: 36.7 ± 2.1 µM
WI-38 cells
  IC50: > 100 µM

## CNC(=O)c1cc(Oc2ccc3nc(NC(=O)Nc4ccc(Cl)c(Cl)c4)sc3c2)ccn1 [IV]
CRAF
  IC50: 0.015 µM
BRAFV600
  IC50: 0.095 µM

## COc1ccc(NC(=O)Nc2nnc(SCC(=O)Nc3nc4ccc(C)cc4s3)s2)cc1 [4i, 2-((5-(3-(4-Methoxyphenyl)ureido)-1,3,4-thiadiazol-2-yl)thio)-N-(6-methylbenzo[d]thiazol-2-yl)acetamide]
HCT-116
  IC50: 76.7 ± 3.9 µM
HePG-2
  IC50: 53.1 ± 2.7 µM
MCF-7
  IC50: 59.5 ± 3.1 µM
WI-38 cells
  IC50: 45.5 ± 2.6 µM
[1]; [6]
  IC50: 53.1 to 76.7 µM

## O=C(CSc1nnc(NC(=O)Nc2ccccc2)s1)Nc1nc2ccc(Cl)cc2s1 [4m, N-(6-Chlorobenzo[d]thiazol-2-yl)-2-((5-(3-phenylureido)-1,3,4-thiadiazol-2-yl)thio)acetamide]
HCT-116
  IC50: 34.4 ± 2.1 µM
HePG-2
  IC50: 29.8 ± 2 µM
MCF-7
  IC50: 28.9 ± 1.9 µM
WI-38 cells
  IC50: 74.5 ± 3.8 µM
[1]; [6]
  IC50: 28.9 to 34.4 µM

## Cc1ccc2nc(NC(=O)CSc3nnc(NC(=O)Nc4ccccc4)s3)sc2c1 [4g, N-(6-Methylbenzo[d]thiazol-2-yl)-2-((5-(3-phenylureido)-1,3,4-thiadiazol-2-yl)thio)acetamide]
HCT-116
  IC50: 19.6 ± 1.3 µM
HePG-2
  IC50: 22.9 ± 1.8 µM
MCF-7
  IC50: 16.5 ± 1.2 µM
WI-38 cells
  IC50: 79.4 ± 4 µM
[1]; [6]
  IC50: 16.5 to 22.9 µM

## O=C(CSc1nnc(NC(=O)Nc2ccc(C(F)(F)F)c(Cl)c2)s1)Nc1nc2ccccc2s1 [4f, N-(Benzo[d]thiazol-2-yl)-2-((5-(3-(3-chloro-4-(trifluoromethyl)phenyl)ureido)-1,3,4-thiadiazol-2-yl)thio)acetamide]
HCT-116
  IC50: 6.21 ± 0.4 µM
BRAF (V600E)
  IC50: 0.194 µM
MCF-7 cells [2]
  proportion of apoptotic cells (early and late): 37.83%
HePG-2
  IC50: 5.05 ± 0.3 µM
MCF-7 cells [3]; untreated 15.85%
  Cell Cycle Distribution (%) G2-M: 12.77%
MCF-7 cells [3]; untreated 26.33%
  Cell Cycle Distribution (%) S: 22.72%
MCF-7 cells [3]; untreated 57.82%
  Cell Cycle Distribution (%) G0-G1: 64.51%
VEGFR-2
  IC50: 0.071 µM
MCF-7
  IC50: 2.74 ± 0.1 µM
WI-38 cells
  IC50: 41.2 ± 2.4 µM
[1]; [4]
  IC50: 3.58 to 15.4 µM
[1]; [5]
  IC50: 2.74 to 5.05 µM

## O=C(CSc1nnc(NC(=O)Nc2ccc(C(F)(F)F)c(Cl)c2)s1)Nc1nc2ccc(Cl)cc2s1 [4r, 2-((5-(3-(3-Chloro-4-(trifluoromethyl)phenyl)ureido)-1,3,4-thiadiazol-2-yl)thio)-N-(6-chlorobenzo[d]thiazol-2-yl)acetamide]
HCT-116
  IC50: 7.81 ± 0.6 µM
BRAF (V600E)
  IC50: 1.36 µM
HePG-2
  IC50: 8.1 ± 0.6 µM
VEGFR-2
  IC50: 0.794 µM
MCF-7
  IC50: 3.85 ± 0.2 µM
WI-38 cells
  IC50: 38.8 ± 2.2 µM
[1]; [4]
  IC50: 3.58 to 15.4 µM
[1]; [5]
  IC50: 3.85 to 8.1 µM

## O=C(CSc1nnc(NC(=O)Nc2ccc(F)cc2)s1)Nc1nc2ccc(Cl)cc2s1 [4q, N-(6-Chlorobenzo[d]thiazol-2-yl)-2-((5-(3-(4-fluorophenyl)ureido)-1,3,4-thiadiazol-2-yl)thio)acetamide]
HCT-116
  IC50: 25.4 ± 1.8 µM
HePG-2
  IC50: 27.4 ± 2.2 µM
MCF-7
  IC50: 21.7 ± 1.5 µM
WI-38 cells
  IC50: 49.7 ± 2.9 µM
[1]; [6]
  IC50: 21.7 to 27.4 µM

## Cc1ccc(NC(=O)Nc2nnc(SCC(=O)Nc3nc4ccccc4s3)s2)cc1 [4b, N-(Benzo[d]thiazol-2-yl)-2-((5-(3-(p-tolyl)ureido)-1,3,4-thiadiazol-2-yl)thio)acetamide]
HCT-116
  IC50: 61.8 ± 3.3 µM
HePG-2
  IC50: 48.2 ± 2.5 µM
MCF-7
  IC50: 46.5 ± 2.6 µM
WI-38 cells
  IC50: 81 ± 4.2 µM
[1]; [6]
  IC50: 46.5 to 61.8 µM

## O=C(CSc1nnc(NC(=O)Nc2ccc(Cl)cc2)s1)Nc1nc2ccccc2s1 [4d, N-(Benzo[d]thiazol-2-yl)-2-((5-(3-(4-chlorophenyl)ureido)-1,3,4-thiadiazol-2-yl)thio)acetamide]
HCT-116
  IC50: 39.7 ± 2.3 µM
HePG-2
  IC50: 30.2 ± 2.3 µM
MCF-7
  IC50: 33.6 ± 2 µM
WI-38 cells
  IC50: 89.1 ± 4.3 µM
[1]; [6]
  IC50: 30.2 to 33.6 µM

## O=C(CSc1nnc(NC(=O)Nc2ccc(Cl)cc2)s1)Nc1nc2ccc(Cl)cc2s1 [4p, N-(6-Chlorobenzo[d]thiazol-2-yl)-2-((5-(3-(4-chlorophenyl)ureido)-1,3,4-thiadiazol-2-yl)thio)acetamide]
HCT-116
  IC50: 71.3 ± 3.7 µM
HePG-2
  IC50: 57 ± 3.1 µM
MCF-7
  IC50: 62.6 ± 3.2 µM
WI-38 cells
  IC50: 94.1 ± 4.9 µM

## Cc1ccc(NC(=O)Nc2nnc(SCC(=O)Nc3nc4ccc(C)cc4s3)s2)cc1 [4h, N-(6-Methylbenzo[d]thiazol-2-yl)-2-((5-(3-(p-tolyl)ureido)-1,3,4-thiadiazol-2-yl)thio)acetamide]
HCT-116
  IC50: 56.2 ± 3 µM
HePG-2
  IC50: 37.4 ± 2.5 µM
MCF-7
  IC50: 40.6 ± 2.3 µM
WI-38 cells
  IC50: 87.8 ± 4.4 µM
[1]; [6]
  IC50: 37.4 to 56.2 µM

## O=C(CSc1nnc(NC(=O)Nc2ccc(F)cc2)s1)Nc1nc2ccccc2s1 [4e, N-(Benzo[d]thiazol-2-yl)-2-((5-(3-(4-fluorophenyl)ureido)-1,3,4-thiadiazol-2-yl)thio)acetamide]
HCT-116
  IC50: 82.5 ± 4.2 µM
HePG-2
  IC50: 63.4 ± 3.4 µM
MCF-7
  IC50: 67.1 ± 3.4 µM
WI-38 cells
  IC50: > 100 µM
[1]; [6]
  IC50: 63.4 to 82.5 µM

## COc1ccc(NC(=O)Nc2nnc(SCC(=O)Nc3nc4ccccc4s3)s2)cc1 [4c, N-(Benzo[d]thiazol-2-yl)-2-((5-(3-(4-methoxyphenyl)ureido)-1,3,4-thiadiazol-2-yl)thio)acetamide]
HCT-116
  IC50: 65.5 ± 3.5 µM
HePG-2
  IC50: 42.2 ± 2.6 µM
MCF-7
  IC50: 54.5 ± 2.9 µM
WI-38 cells
  IC50: 91.3 ± 4.6 µM
[1]; [6]
  IC50: 42.2 to 65.5 µM
